pIC50: −log10 of the molar value.

The test system of this test is PD-L1. Description: Inhibitory effect of PD-L1 expression by cell staining with anti-PD-L1 antibody in IFN-γ-treated THP-1 cells (flow cytometry). In kind it is cell-based. The settings on record: Homo sapiens, IFN-γ 25 ng/mL, 24±2 hours, subMFI anti-CD274-PC7, read-out: IC50 (50% PD-L1 expression inhibition concentration). As to the method: The inhibitory effects of each compound of Examples 1 to 6 on the PD-L1 expression were evaluated according to the following procedures.
(1) Acute monocytic leukemia cell-derived THP-1 cells were suspended in RPMI medium containing 10% FCS and 1% P/S (hereinafter, referred to as “RPMI medium”) at 5×10^5 cells/mL to obtain a cell suspension, and the cell suspension was dispensed into each well of a 6 well-plate in an amount of 3 mL. In order to activate the THP-1 cells and express PD-L1 in the cells, IFN-γ (PEPROTECH, Cat. No. 300-02-100UG, >2e+7 U/mg) was added into each well at a concentration of 25 ng/mL (>500 U/mL). 50 mmol/L of the test compound solution was diluted with the medium (usually, in the range of 0.025 mmol/L to 1 mmol/L), and the diluted solution was added into each well in an amount of 60 μL. The plate was incubated in a CO2 incubator (at 37° C. and 5% CO2) for 24±2 hours. In the control group, only DMSO was added in place of the test compound. (2) A part of the prepared cell culture liquid was collected and the number of cells therein was counted using a cell counter (BIORAD TC-20). The cell culture liquid was centrifuged at 300×g for 5 minutes and the supernatant of the cell culture liquid was removed. The cells were suspended in calcium and magnesium free phosphate buffered saline (PBS−) containing 1% bovine serum albumin (BSA) at a cell concentration of 1 to 2×10^7 cells/mL to prepare a cell suspension. (3) Each cell suspension prepared in the above step (2) were added into a 5 mL tube in an amount of 25 μL. 2 μL of 2% normal mouse serum/PBS− was added into tubes, and the tubes were gently pipetted. The tubes were then allowed to stand at room temperature for 15 minutes. (4) Anti-CD274-PC7 antibody (BECKMAN COULTER, Cat. No. A78884) or mouse IgG1-PC7 antibody (BECKMAN COULTER, 737662) as control was added in each tube in an amount of 10 μL, and the tubes were gently stirred. The tubes were then allowed to stand in the dark on an ice bath for 30 minutes. (5) Foxp3/Transcription Factor Fix/Perm Concentrate (4×) (Cat. No. TNB-1020-L050) (A solution) supplied in FOXP3/Transcription Factor Staining kit (TONBO biosciences) was diluted in Foxp3/Transcription Factor Fix/Perm Diluent (1×) (Cat. No. TNB-1022-L160) (A dilution solution) to prepare a 1×A solution. (6) The 1×A solution was added into each tube in an amount of 1 mL, and the tubes were gently pipetted and stirred. The tubes were then allowed to stand in the dark at room temperature for 30 minutes and centrifuged at 300×g for 5 minutes, and then the supernatants therein were removed. (7) 2 mL of 1% BSA/PBS− was added into each tube and the tubes were gently stirred and centrifuged at 300×g for 5 minutes, and then the supernatants therein were removed. (8) The cells therein were suspended in 0.5 mL of 1% BSA/PBS- and measured with a flow cytometer (Sony: Cell Sorter SH800) within 2 hours. The results were analyzed with a software, FlowJo (Tree Star Inc.). The mean peak fluorescence intensity (MFI) of PD-L1 and mean peak fluorescence intensity of IgG1 were calculated from histograms of the measured fluorescence intensity and number of cells, and the mean fluorescence intensity of IgG1 was subtracted from that of PD-L1 to calculate the subMFI. The experiments were performed in n=2.
The subMFI values of the control cells calculated by the FlowJo analysis and the cells cultured with the addition of the test compounds at each concentration (test cells) were input into an Excel file, and the percentages of the subMFI values of the test cells at each concentration to the average subMFI value of control cells were calculated. The regression line was determined from the percentages of the subMFI values of the test cells at each concentration by the method of least squares to calculate the 50% PD-L1 expression inhibition concentration (IC50 value) of each compound.
(In general: In flow cytometry, cells or beads pass a laser one at a time.)
For `COc1cc(C(=O)N2CCCC(C(=O)Nc3ccc(Oc4ccc(C(F)(F)F)cc4)cc3)C2)ccc1O` (stereo not shown) [Example 3, 1-(4-Hydroxy-3-methoxybenzoyl)-N-(4-(4-(trifluoromethyl)phenoxy)phenyl)piperidine-3-carboxamide], the pIC50 was 6.03. For the compound `COc1cc(C(=O)N2CCCC(C(=O)Nc3ccc(Oc4ccc(S(F)(F)(F)(F)F)cc4)cc3)C2)ccc1O` (stereo not shown) [Example 6, 1-(4-Hydroxy-3-methoxybenzoyl)-N-(4-(4-(pentafluorosulfanyl)phenoxy)phenyl)piperidine-3-carboxamide], the pIC50 is 6.08.

`O=C(Nc1ccc(Oc2ccc(C(F)(F)F)cc2)cc1)C1CCCN(C(=O)c2ccc([N+](=O)[O-])cc2)C1` (stereo not shown) [Example 2, 1-(4-Nitrobenzoyl)-N-(4-(4-(trifluoromethyl)phenoxy)phenyl) piperidine-3-carboxamide]: the pIC50 is 5.92.

As for `O=C(Nc1ccc(Oc2ccc(S(F)(F)(F)(F)F)cc2)cc1)C1CCCN(C(=O)c2ccc([N+](=O)[O-])cc2)C1` (stereo not shown) [Example 5, 1-(4-Nitrobenzoyl)-N-(4-(4-(pentafluorosulfanyl)phenoxy)phenyl)piperidine-3-carboxamide], the pIC50 is 6.17.
